Here are results for 37 compounds from patent US9668481B2, “Triazole derivatives” (priority 2013, dated 2017).

Marks after values point to notes of the source that are not given here.

The conditions of the first data set: method [a]: LC-MS at pH 2.7, 0.1% formic acid in water / acetonitrile gradient.
In the case of `CC(C)(C)C(=O)Cc1ncc(Cl)cc1Cl` [Example V-1], the LogP (usually a log measure of how a compound divides between an organic and an aqueous phase) is 3.33^[a]. Still for that read-out and setting: with `CC(C)(C)C(=O)Cc1cnc2ccccc2c1` [Example V-2] the figure was 1.60^[a]. On to `CC(C)(C)C(=O)Cc1ccc(Cl)nc1` [Example V-3], for which the LogP was 2.47^[a]. The same measure, in the same setting: with `CCC(C)(CC)C(=O)Cc1ccncc1Cl` [Example V-5] the figure was 3.04^[a]; with `CC(C)C(C)(C)C(=O)Cc1ccncc1Cl` [Example V-6], 3.00^[a]. Take `CC(C)(C)C(=O)Cc1cccnc1` [Example V-7]: the LogP is recorded as 0.41. On the same count and under the same terms, with `CC(C)(C)C(=O)Cc1ccncc1` [Example V-8] the figure was 0.35; with `CC(C)(C)C1(Cc2ncc(Cl)cc2Cl)CO1` (stereo not drawn) [XII-1], 4.06^[a]; with `CC(C)(C)C1(Cc2cnc3ccccc3c2)CO1` (stereo not drawn) [XII-2], 1.86^[a]. Same read-out and setting: the same measure for `CC(C)(C)C1(Cc2ccncc2F)CO1` (stereo not drawn) [XII-7]: 2.31^[a]; for `CCC(C)(C)C1(Cc2ccncc2F)CO1` (stereo not drawn) [XII-8]: 2.76^[a].

On to `CC(C)C(C)(C)C1(Cc2ccncc2F)CO1` (stereo not drawn) [XII-9], for which the LogP is 3.19^[a]. In the case of `CCC(C)(C)C1(Cc2ccnc(Cl)c2)CO1` (stereo not drawn) [XII-10], the LogP was 3.51^[a]. On the same count and under the same terms, with `CC(C)C(C)(C)C1(Cc2ccnc(Cl)c2)CO1` (stereo not drawn) [XII-11] the figure was 3.94^[a]; with `CC(C)(C)C1(Cc2ccnc(Cl)c2)CO1` (stereo not drawn) [XII-12], 3.06^[a]; with `CC(C)C(C)(C)C1(Cc2cc(Cl)ncc2F)CO1` (stereo not drawn) [XII-13], 4.34^[a]. On to `CCC(C)(C)C1(Cc2cc(Cl)ncc2F)CO1` (stereo not drawn) [XII-14], for which the LogP was 3.89^[a]. With `CC(C)(C)C1(Cc2cc(Cl)ncc2F)CO1` (stereo not drawn) [XII-15], the LogP was 3.42^[a].

With `CC(C)C(C)(C)C1(Cc2ccncc2Cl)CO1` (stereo not drawn) [XII-16], the LogP is 3.75^[a]. As to `CCC(C)(C)C1(Cc2ccncc2Cl)CO1` (stereo not drawn) [XII-17], the LogP was 3.33^[a]. On the same count and under the same terms, the same measure for `CC(C)(C)C1(Cc2cc(F)ncc2Cl)CO1` (stereo not drawn) [XII-18]: 3.65^[a].

Regarding `CCC(C)(C)C1(Cc2cc(F)ncc2Cl)CO1` (stereo not drawn) [XII-19], the LogP is 4.17^[a]. The same measure, in the same setting: with `CC(C)(C)C1(Cc2ccnc(Cl)c2F)CO1` (stereo not drawn) [XII-20] the figure was 3.37^[a]; with `CC(C)(C)C1(Cc2c(Cl)cncc2Cl)CO1` (stereo not drawn) [XII-21], 3.89^[a].

The same data set, now with this note: method [b]: LC-MS at pH 7.8, 0.001 molar ammonium hydrogen carbonate in water / acetonitrile gradient.
Turning to `CC(C)(C)C(=O)Cc1cccnc1` [Example V-7], the LogP is given as 1.71. The same measure, in the same setting: with `CC(C)(C)C(=O)Cc1ccncc1` [Example V-8] the figure was 1.75.

Staying with this data set, now noted: pH 2.7.
For the compound `CC(C)(C)C(O)(Cc1cnc2ccccc2c1)Cn1cncn1` (stereo not drawn) [Example I-1], the LogP was 1.18^[a]. The same measure, in the same setting: with `CC(C)(C)C(O)(Cc1cc(Cl)cc(Cl)n1)Cn1cncn1` (stereo not drawn) [Example I-11] the figure was 2.86^[a]. For the compound `CC(C)(C)C(O)(Cc1ccc(Cl)c(Cl)n1)Cn1cncn1` (stereo not drawn) [Example I-12], the LogP is 2.78^[a]. As for `CC(C)(C)C(O)(Cc1cccc(Cl)n1)Cn1cncn1` (stereo not drawn) [Example I-13], the LogP was 2.30^[a]. `CC(C)(C)C(O)(Cc1cncc(Cl)n1)Cn1cncn1` (stereo not drawn) [Example I-17]: the LogP was 1.89^[a]. In the case of `CC(C)(C)C(O)(Cc1nccnc1Cl)Cn1cncn1` (stereo not drawn) [Example I-18], the LogP was 2.01^[a]. The same measure, in the same setting: the same measure for `Cc1ncc(CC(O)(Cn2cncn2)C(C)(C)C)nc1Cl` (stereo not drawn) [Example I-19]: 2.10^[a]. As to `Cc1cnc(CC(O)(Cn2cncn2)C(C)(C)C)c(Cl)n1` (stereo not drawn) [Example I-20], the LogP was 2.21^[a]. The same measure, in the same setting: with `CC(C)(C)C(O)(Cc1cnccn1)Cn1cncn1` (stereo not drawn) [Example I-21] the figure was 1.39^[a]; with `CC(C)(C)C(O)(Cc1cc(Cl)ccn1)Cn1cncn1` (stereo not drawn) [Example I-22], 1.87^[a]; with `Cc1cccc(CC(O)(Cn2cncn2)C(C)(C)C)n1` (stereo not drawn) [Example I-23], 0.63^[a]. On the same count and under the same terms, with `CC(C)(C)C(O)(Cc1c(Cl)cncc1Cl)Cn1cncn1` (stereo not drawn) [Example I-28] the figure was 2.34^[a]. As for `CC(C)(C)C(O)(Cc1nc(Cl)ccc1Cl)Cn1cncn1` (stereo not drawn) [Example I-33], the LogP was 2.82^[a].
